Laboratory results: patent US12655142B2 (Merck Patent GmbH, priority 2019, dated 2026)

How the values were obtained:
[1] = molecular target: T1, GIST430/654 cell line expressing mutated constitutively active cKIT receptor tyrosine kinase (Δ560-576 deletion and V654A point mutation) (Homo sapiens, UniProt P10721, DEL560-576/V654A); test: Cellular cKIT autophosphorylation (phospho-Y307-cKIT, Luminex bead assay) in GIST430/654 cells; type: cell-based; details: compounds 45 min, read-out: GIST 430/654 IC50
T1 construct: endogenous in cells; host or cells: GIST430/654 cells
T1 sequence (P10721 with tags, fused parts or gaps DEL560-576/V654A): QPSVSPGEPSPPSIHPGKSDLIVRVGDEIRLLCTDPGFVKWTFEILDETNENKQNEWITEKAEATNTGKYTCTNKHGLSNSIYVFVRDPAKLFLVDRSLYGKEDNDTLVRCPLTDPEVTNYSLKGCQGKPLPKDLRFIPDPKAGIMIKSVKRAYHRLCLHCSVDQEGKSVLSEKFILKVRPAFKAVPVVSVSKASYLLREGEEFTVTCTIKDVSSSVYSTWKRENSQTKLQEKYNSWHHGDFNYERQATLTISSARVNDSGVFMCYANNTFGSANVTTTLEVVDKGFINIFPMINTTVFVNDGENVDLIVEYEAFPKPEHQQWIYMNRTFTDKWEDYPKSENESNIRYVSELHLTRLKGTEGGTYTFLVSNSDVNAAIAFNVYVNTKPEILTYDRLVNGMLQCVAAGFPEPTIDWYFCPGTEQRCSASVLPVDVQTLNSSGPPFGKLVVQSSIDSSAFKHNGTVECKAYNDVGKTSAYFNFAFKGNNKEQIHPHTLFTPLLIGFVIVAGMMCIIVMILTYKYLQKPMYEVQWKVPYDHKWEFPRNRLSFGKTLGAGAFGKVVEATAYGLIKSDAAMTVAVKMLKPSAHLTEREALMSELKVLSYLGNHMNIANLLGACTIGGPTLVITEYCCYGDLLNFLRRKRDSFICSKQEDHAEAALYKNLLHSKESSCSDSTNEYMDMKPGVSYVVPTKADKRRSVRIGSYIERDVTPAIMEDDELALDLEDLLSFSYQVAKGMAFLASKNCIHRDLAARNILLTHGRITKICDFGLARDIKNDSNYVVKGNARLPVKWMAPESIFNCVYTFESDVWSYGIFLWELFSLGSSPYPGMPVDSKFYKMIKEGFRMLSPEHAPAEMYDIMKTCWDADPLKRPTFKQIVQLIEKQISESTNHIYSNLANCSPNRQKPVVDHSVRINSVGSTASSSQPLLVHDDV
In short: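 GIST430 (Δ560-576) and imatinib-resistant GIST430/654 (plus V654A; grown with 100 nM imatinib) cells were plated in IMDM/15% FCS and treated next day with serially diluted compound for 45 min. Lysates were captured on anti-total-cKIT Luminex beads overnight at 4 °C and probed for phospho-Y307. IC50 was taken from percent of 0.3% DMSO control.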

[2] = Determination of Efflux-Ratio (ER) in Caco-2 cells; details: human, Caco-2, pH 7.4
c-Kit(V654A) = molecular target: T2, c-Kit(V654A) (Homo sapiens, UniProt P10721, V654A); test: c-Kit(V654A) assay (33P-ATP filter binding kinase assay); type: biochemical; details: recombinant human c-Kit aa 544-end V654A, ATP 200 μM
T2 construct: recombinant human c-Kit, amino acids 544-end containing the V654A mutation; GST (N)
T2 sequence (P10721 544-976 V654A): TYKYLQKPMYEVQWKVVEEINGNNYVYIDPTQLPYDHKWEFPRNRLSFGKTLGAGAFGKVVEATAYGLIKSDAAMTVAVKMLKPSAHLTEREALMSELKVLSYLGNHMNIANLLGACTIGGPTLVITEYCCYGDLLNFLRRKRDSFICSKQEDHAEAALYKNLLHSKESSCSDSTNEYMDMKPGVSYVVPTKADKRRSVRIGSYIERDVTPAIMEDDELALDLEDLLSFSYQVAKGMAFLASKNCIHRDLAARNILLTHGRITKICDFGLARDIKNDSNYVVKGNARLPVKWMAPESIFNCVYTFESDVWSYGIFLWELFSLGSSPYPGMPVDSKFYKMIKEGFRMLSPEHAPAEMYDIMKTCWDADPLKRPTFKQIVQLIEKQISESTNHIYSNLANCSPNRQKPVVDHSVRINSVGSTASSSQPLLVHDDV
In short: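 Radiometric filter-binding read-out: substrate 33P incorporation counted by scintillation after P30 filtermat washes in 75 mM phosphoric acid and methanol. Enzyme: N-GST recombinant human c-Kit aa 544-end carrying V654A.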

Row | Compound | IC50 [1] | efflux ratio at 2 h, 1 μM [2] | IC50 (c-Kit(V654A))
1 | Cn1cc(-c2ccc(CNc3cc(-c4cnc5cc(-c6cnn(C)c6)ccn45)ncn3)cc2)cn1 [A226, 6-[7-(1-methyl-1H-pyrazol-4-yl)imidazo[1,2-a]pyridin-3-yl]-N-{[4-(1-methyl-1H-pyrazol-4-yl)phenyl]methyl}pyrimidin-4-amine] | 51 nM | < 15 | 4.2 nM
2 | Cn1cc(-c2ccc(CNc3cc(-c4cnc5cc(OCC6CC6)ccn45)ncn3)cc2)cn1 [A58, 6-[7-(cyclopropylmethoxy)imidazo[1,2-a]pyridin-3-yl]-N-{[4-(1-methyl-1H-pyrazol-4-yl)phenyl]methyl}pyrimidin-4-amine] | 150 nM |  | 19 nM
3 | COc1ccn2c(-c3cc(NCc4ccc(-c5cn(C)nn5)cc4)ncn3)cnc2c1 [A31, [6-(7-methoxy-imidazo[1,2-a]pyridin-3-yl)-pyrimidin-4-yl]-[4-(1-methyl-1H-[1,2,3]triazol-4-yl)-benzyl]-amine] | 810 nM |  | 49 nM
4 | c1cn(-c2ccc(CNc3cc(-c4cnc5cc(OCCN6CCOCC6)ccn45)ncn3)cc2)nn1 [A68, {6-[7-(2-morpholin-4-yl-ethoxy)-imidazo[1,2-a]pyridin-3-yl]-pyrimidin-4-yl}-(4-[1,2,3]triazol-1-yl-benzyl)-amine] | 63 nM |  | 5.7 nM
5 | Cn1cc(-c2ccc(CNc3cc(-c4cnc5cc(OCCN6CCC(F)C6)ccn45)ncn3)cc2)cn1 (centres unmarked) [A89, 6-{7-[2-(3-fluoropyrrolidin-1-yl)ethoxy]imidazo[1,2-a]pyridin-3-yl}-N-{[4-(1-methyl-1H-pyrazol-4-yl)phenyl]methyl}pyrimidin-4-amine] | 82 nM |  | 8.6 nM
6 | CN1CCN(CCOc2ccn3c(-c4cc(NCc5ccc(-c6cnn(C)c6)cc5)ncn4)cnc3c2)CC1=O [A93, 1-methyl-4-[2-({3-[6-({[4-(1-methyl-1H-pyrazol-4-yl)phenyl]methyl}amino)pyrimidin-4-yl]imidazo[1,2-a]pyridin-7-yl}oxy)ethyl]piperazin-2-one] | 110 nM |  | 13 nM
7 | COc1ccn2c(-c3cc(NCc4ccc(-c5nnn(C)n5)cc4)ncn3)cnc2c1 [A37, 6-{7-methoxyimidazo[1,2-a]pyridin-3-yl}-N-{[4-(2-methyl-2H-1,2,3,4-tetrazol-5-yl)phenyl]methyl}pyrimidin-4-amine] | 220 nM |  | 15 nM
8 | Cn1cc(-c2ccc(COc3cc(-c4cnc5cc(OCCN6CCCC6)ccn45)ncn3)cc2)cn1 [A87, 3-{6-[4-(1-methyl-1H-pyrazol-4-yl)-benzyloxy]-pyrimidin-4-yl}-7-(2-pyrrolidin-1-yl-ethoxy)-imidazo[1,2-a]pyridine] | 500 nM |  | 11 nM
9 | Cn1cc(-c2ccc(CNc3cc(-c4cnc5cc(F)ccn45)ncn3)cc2)cn1 [H1, 6-{7-fluoroimidazo[1,2-a]pyridin-3-yl}-N-{[4-(1-methyl-1H-pyrazol-4-yl)phenyl]methyl}pyrimidin-4-amine] | 240 nM |  | 12 nM
10 | Cn1cc(-c2ccc(CNc3cc(-c4cnc5cc(OCCN6CCN(C7COC7)CC6=O)ccn45)ncn3)cc2)cn1 [A95, 1-[2-({3-[6-({[4-(1-methyl-1H-pyrazol-4-yl)phenyl]methyl}amino)pyrimidin-4-yl]imidazo[1,2-a]pyridin-7-yl}oxy)ethyl]-4-(oxetan-3-yl)piperazin-2-one] | 210 nM |  | 9.8 nM
11 | CC(COc1ccn2c(-c3cc(NCc4ccc(-c5cnn(C)c5)cc4)ncn3)cnc2c1)CN1CCCC1 (centres unmarked) [A235, [4-(1-methyl-1H-pyrazol-4-yl)-benzyl]-{6-[7-(2-methyl-3-pyrrolidin-1-yl-propoxy)-imidazo[1,2-a]pyridin-3-yl]-pyrimidin-4-yl}-amine] | 87 nM |  | 4.3 nM
12 | CCn1cc(-c2ccc(CNc3cc(-c4cnc5cc(OC)ccn45)ncn3)cc2)cn1 [A23, [4-(1-ethyl-1H-pyrazol-4-yl)-benzyl]-[6-(7-methoxy-imidazo[1,2-a]pyridin-3-yl)-pyrimidin-4-yl]-amine] | 66 nM |  | 6.2 nM
13 | Cn1cc(-c2ccc(CNc3cc(-c4cnc5cc(OCCN6CCC[C@@H]7OCC[C@@H]76)ccn45)ncn3)cc2)cn1 [A210, (6-{7-[(3aS,7aS)-2-(hexahydro-furo[3,2-b]pyridin-4-yl)-ethoxy]-imidazo[1,2-a]pyridin-3-yl}-pyrimidin-4-yl)-[4-(1-methyl-1H-pyrazol-4-yl)-benzyl]-amine] | 100 nM |  | 6.5 nM
14 | Cn1cc(-c2ccc(CNc3cc(-c4cnc5cc(OCCCS(C)(=O)=O)ccn45)ncn3)cc2)cn1 [A143, {6-[7-(3-methanesulfonyl-propoxy)-imidazo[1,2-a]pyridin-3-yl]-pyrimidin-4-yl}-[4-(1-methyl-1H-pyrazol-4-yl)-benzyl]-amine] | 380 nM |  | 21 nM
15 | Cn1ncc(-c2ccc(CNc3cc(-c4cnc5cc(OCCCO)ccn45)ncn3)cc2)n1 [A134, 3-(3-{6-[4-(2-methyl-2H-[1,2,3]triazol-4-yl)-benzylamino]-pyrimidin-4-yl}-imidazo[1,2-a]pyridin-7-yloxy)-propan-1-ol] | 52 nM |  | 4.6 nM
16 | COc1ccn2c(-c3cc(NCc4cccc(-c5cnn(C)c5)c4)ncn3)cnc2c1 [A28, [6-(7-methoxy-imidazo[1,2-a]pyridin-3-yl)-pyrimidin-4-yl]-[3-(1-methyl-1H-pyrazol-4-yl)-benzyl]-amine] | 1400 nM |  | 35 nM
17 | CN1CCN(c2ccn3c(-c4cc(NCc5ccc(-c6cnn(C)c6)cc5)ncn4)cnc3c2)CC1 [A181, {6-[7-(4-methyl-piperazin-1-yl)-imidazo[1,2-a]pyridin-3-yl]-pyrimidin-4-yl}-[4-(1-methyl-1H-pyrazol-4-yl)-benzyl]-amine] | 110 nM |  | 15 nM

The next lines start with the values.

Row | IC50 [1] | efflux ratio at 2 h, 1 μM [2] | IC50 (c-Kit(V654A)) | Compound
18 | 84 nM | > 50 | 13 nM | Cn1cc(-c2ccc(CNc3cc(-c4cnc5cc(N6CCC(O)C6)ccn45)ncn3)cc2)cn1 (centres unmarked) [A245, 1-(3-{6-[4-(1-methyl-1H-pyrazol-4-yl)-benzylamino]-pyrimidin-4-yl}-imidazo[1,2-a]pyridin-7-yl)-pyrrolidin-3-ol]
19 | 270 nM |  | 11 nM | Cn1cc(-c2ccc(CNc3cc(-c4cnc5cc(OC6CCOC6)ccn45)ncn3)cc2)cn1 (centres unmarked) [A57, [4-(1-methyl-1H-pyrazol-4-yl)-benzyl]-{6-[7-(tetrahydro-furan-3-yloxy)-imidazo[1,2-a]pyridin-3-yl]-pyrimidin-4-yl}-amine]
20 | 1900 nM |  | 85 nM | Cn1cc(-c2ccc(CNc3cc(-c4cnc5cc(NC(C)(C)CO)ccn45)ncn3)cc2)cn1 [A163, 2-methyl-2-(3-{6-[4-(1-methyl-1H-pyrazol-4-yl)-benzylamino]-pyrimidin-4-yl}-imidazo[1,2-a]pyridin-7-ylamino)-propan-1-ol]
21 | 62 nM |  | 6.1 nM | CN1CCC(CCOc2ccn3c(-c4cc(NCc5ccc(-c6cnn(C)c6)cc5)ncn4)cnc3c2)CC1 [A129, (6-{7-[2-(1-methyl-piperidin-4-yl)-ethoxy]-imidazo[1,2-a]pyridin-3-yl}-pyrimidin-4-yl)-[4-(1-methyl-1H-pyrazol-4-yl)-benzyl]-amine]
22 | 43 nM |  | 5 nM | CN(C)CCCOc1ccn2c(-c3cc(NCc4ccc(-c5cnn(C)c5)cc4)ncn3)cnc2c1 [A132, {6-[7-(3-dimethylamino-propoxy)-imidazo[1,2-a]pyridin-3-yl]-pyrimidin-4-yl}-[4-(1-methyl-1H-pyrazol-4-yl)-benzyl]-amine]
23 | 30 nM |  | 6 nM | CN1CCO[C@@H](COc2ccn3c(-c4cc(NCc5ccc(-c6cnn(C)c6)cc5)ncn4)cnc3c2)C1 [A117, {6-[7-((R)-4-methyl-morpholin-2-ylmethoxy)-imidazo[1,2-a]pyridin-3-yl]-pyrimidin-4-yl}-[4-(1-methyl-1H-pyrazol-4-yl)-benzyl]-amine]
24 | 160 nM |  | 9.6 nM | Cn1cc(-c2ccc(CNc3cc(-c4cnc5cc(OCCN6CC(F)(F)C6)ccn45)ncn3)cc2)cn1 [A139, 6-{7-[2-(3,3-difluoroazetidin-1-yl)ethoxy]imidazo[1,2-a]pyridin-3-yl}-N-{[4-(1-methyl-1H-pyrazol-4-yl)phenyl]methyl}pyrimidin-4-amine]
25 | 180 nM |  | 27 nM | COc1ccn2c(-c3cc(NCc4ccc(-c5cnn(CCO)c5)cc4)ncn3)cnc2c1 [A30, 2-[4-(4-{[6-(7-methoxy-imidazo[1,2-a]pyridin-3-yl)-pyrimidin-4-ylamino]-methyl}-phenyl)-pyrazol-1-yl]-ethanol]
26 | 120 nM |  | 9.5 nM | Cn1ncc(-c2ccc(CNc3cc(-c4cnc5cc(OCCN6CCC(F)(F)C6)ccn45)ncn3)cc2)n1 [A105, (6-{7-[2-(3,3-difluoro-pyrrolidin-1-yl)-ethoxy]-imidazo[1,2-a]pyridin-3-yl}-pyrimidin-4-yl)-[4-(2-methyl-2H-[1,2,3]triazol-4-yl)-benzyl]-amine]
27 | 100 nM |  | 6.7 nM | Cn1cc(-c2ccc(CNc3cc(-c4cnc5cc(OCCN6CC7CC7C6)ccn45)ncn3)cc2)cn1 (centres unmarked) [A127, (6-{7-[2-(3-aza-bicyclo[3.1.0]hex-3-yl)-ethoxy]-imidazo[1,2-a]pyridin-3-yl}-pyrimidin-4-yl)-[4-(1-methyl-1H-pyrazol-4-yl)-benzyl]-amine]
